# Results reported in paper PMC4901321, “Screening of saponins and sapogenins from Medicago species as potential PPARγ agonists and X-ray structure of the complex PPARγ/caulophyllogenin” (Scientific Reports, 2016).
# “Also recorded” adds a separate entry of the source. Like-named read-outs stand apart in the source and are kept apart here.
# Assays:
# [1] = target: T1, PPARγ LBD (Homo sapiens, UniProt P37231); test: Surface plasmon resonance, PPARγ receptor/saponin or sapogenin interactions; type: binding; settings: for Kd: koff/kon; for affinity to the nuclear receptor: in words
# T1 construct: PPARγ LBD was expressed as N-terminal His-tagged proteins using a pET28 vector; His tag (N, cleaved yes); made in house; host or cells: E. coli BL21 DE3
# T1 sequence (P37231 238-503 limits assumed): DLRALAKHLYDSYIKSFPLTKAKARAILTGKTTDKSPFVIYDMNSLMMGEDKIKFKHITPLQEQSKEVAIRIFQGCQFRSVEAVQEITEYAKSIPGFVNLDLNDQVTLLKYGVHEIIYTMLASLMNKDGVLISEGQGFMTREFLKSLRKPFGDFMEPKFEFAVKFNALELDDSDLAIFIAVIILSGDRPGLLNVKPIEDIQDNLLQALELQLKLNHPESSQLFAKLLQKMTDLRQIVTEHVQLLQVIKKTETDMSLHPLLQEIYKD
# Protocol: PPARγ LBD was expressed as N-terminal His-tagged proteins using a pET28 vector and then purified as previously described[40]. Briefly, freshly transformed E. coli BL21 DE3 were grown in LB medium with 30 μg of kanamycin/mL at 310 K to an OD of 0.6. […] Cells were harvested and resuspended in a 20 mL/liter culture of Buffer A (20 mM Tris, 150 mM NaCl, 10% glycerol, 1 mM Tris 2-carboxyethylphosphine HCl (TCEP), pH 8) in the presence of protease inhibitors (Complete Mini EDTA-free; Roche Applied Science). Cells were sonicated, and the soluble fraction was isolated by centrifugation (35,000 × g for 45 min). The supernatant was loaded onto a Ni^2+ -nitrilotriacetic acid column (GE Healthcare) and eluted with a gradient of imidazole 0–300 mM in Buffer A (batch method). The pure protein was identified by SDS PAGE. The protein was then dialyzed over buffer A to remove imidazole, and it was cleaved with thrombin protease (GE Healthcare) (10 units/mg) at room temperature for 2 h. The digested mixture was reloaded onto a Ni^2+ -nitriloacetic acid column to remove His tag and the undigested protein. The flow-through was loaded onto a Q-Sepharose HP column (GE Healthcare) and eluted with a gradient of NaCl 0–500 mM in Buffer B (20 mM Tris, 10% glycerol, 1 mM TCEP, pH 8) with a BioLogic DuoFlow FPLC system (Bio-Rad Laboratories, Italy). Finally, the protein was purified by gel-filtration chromatography on a HiLoad Superdex 75 column (GE Healthcare) and eluted with Buffer C (20 mM Tris, 1 mM TCEP, 0.5 mM EDTA, pH 8). The protein was then concentrated at 8 mg/mL using Amicon centrifugal concentrators with a 10 kDa cutoff membrane (Millipore, USA). Part of the protein was used for SPR experiments.
# Surface plasmon resonance analyses were performed by using Pioneer AE optical biosensor equipped with COOH5 chips (SensiQ). PPARγ surfaces were prepared by using standard amine-coupling procedures[45] and HBS (Hepes-buffered saline: 20 mM Hepes, 150 mM sodium chloride, 0.005% P20, pH 7.4) as the running buffer. Flow cells were activated for 7 min by injecting 140 μL of 50 mM N-hydroxysuccinimide (NHS):200 mM ethyl-3(3-dimethylamino) propyl carbodiimide (EDC). Fifty μL of a 0.25 mg/mL PPARγ solution (in 10 mM sodium acetate, pH 5.0) were injected for 5 min at 10 μL/min on channels 1 and 3 (channel 2 was used as ref. [3], for a duplicate experiment), followed by a 70-μL injection of ethanolamine to block any remaining activated groups on the surface. […] The screening of the analytes (saponins and sapogenins) was performed using HBS without P20, with 1 mM DTT and 2% DMSO. To collect detailed kinetic data the OneStep[46][47][48] protocol was used, injecting the analytes at a flow rate of 50 μL/min and at the concentration of 100 μM (50 μM for 14 and 15) over the three channels at 20 °C (association phase of 180 s). Five buffer blanks were injected for double referencing . […] A DMSO calibration plot was constructed (buffer sample containing 1–3% (vol/vol) DMSO) to correct for bulk refractive index shifts[49]. Data were collected at a rate of 20 Hz. All sensorgrams were processed by using double referencing[50]. First, the responses from the reference surface (channel 2) were subtracted from the binding responses collected over the reaction surfaces to correct for bulk refractive index changes.
# [2] = tested on: HepG2 cells; test: MTT assay for cell viability; type: cell-based, human; settings: for IC50: read-out: IC50 (concentration that reduces the cell viability by 50%)
# Protocol: Human hepatocellular liver carcinoma cell line HepG2 (Interlab Cell Line Collection, Genoa, Italy) was cultured in Minimum Essential Medium (MEM) containing 10% heat-inactivated fetal bovine serum, 100 U·mL^−1 of penicillin G, and 100 μg·mL^−1 of streptomycin sulfate at 37 °C in a humidified atmosphere of 5% CO2.
# Cell viability was measured using the MTT assay. HepG2 cells were seeded at a density of 1·10^5 cells/well into 96-well flat bottom culture plates containing test compounds (ranging from 200 nM to 100 μM final concentration), in a final volume of 100 μL. […] Control wells lacked inhibitor. After 24 h of incubation at 37 °C in a 5% CO2 atmosphere, 3-(4,5-dimethylthiazole-2-yl)-2,5-diphenyltetrazolium bromide (MTT, 5 mg/mL stock solution) was added to a final concentration of 0.5 mg/mL. To control for background absorbance, six wells of cells were lysed by adding Triton X-100 (0.1% v/v final concentration) immediately prior to the addition of MTT reagent. After incubation under the same conditions for further 3–4 h, the culture medium was removed, the insoluble product dissolved by the addition of 100 μL of solvent (50% DMSO, 50% EtOH v/v), and the absorbance of the well was measured at 570 nm using a PERKIN–ELMER Victor V^3 plate reader. Cell growth inhibition was then calculated using the following Equation,
# where V% is the percentage of cell viability, A is the absorbance of treated cultures, Ab is the absorbance of background control, and Ac is the absorbance of control cultures.
# [3] = target: T1, PPARγ LBD; test: Isothermal titration calorimetry; type: binding
# Protocol: ITC experiments were performed at 22 °C by using a ITC200 microcalorimeter (MicroCal, Inc., Northampton, MA, USA). […] DMSO was added to the protein solution at the same percentage of the ligand solution (2%) for the experiment with SAP19. The protein solution (50 μM) was placed in the sample cell, and ligand solution (500 μM) was loaded into the syringe injector (PPARγ 40 μM and the ligand 400 μM for the experiment with 13-HODE) . The titrations involved 19 injections of 2 μL each at 150 s intervals. A reference titration of ligand into buffer was used to correct for heats of dilution. Thermodynamic data was processed with Origin 7.0 software (MicroCal). Fitting the isotherms with one-site binding model yealded the values of the association constant (Ka).
# [4] = tested on: PPARγ; design: method as in PMID 25487878; settings: cited from earlier work
# [5] = target: T2, PPARγ (Homo sapiens, UniProt P37231); test: Displacement experiments against rosiglitazone (antagonist behavior, transactivation); type: cell-based
# T2 construct: expressed in transfected cells; host or cells: HepG2
# T2 sequence (P37231 238-503 limits assumed): T1 sequence (P37231 238-503 limits assumed)
# Protocol: The antagonist behavior of the above compounds was also evaluated in displacement experiments against rosiglitazone.
# For transactivation assays, 1·10^5 cells per well were seeded in a 96-well plate and transfected after 24 h with K2 Transfection System (Biontex Laboratories GmbH), according to the manufacturer’s protocol using 0.20 μg/well of DNA. Cells were transfected with expression plasmids encoding the fusion protein Gal4-PPARα-LBD or Gal4-PPARγ-LBD, pGal5TKpGL3, and pCMVβgal to normalize the transfection efficacy. 24 h after transfection, medium was replaced with fresh complete growth medium supplemented with test compounds (ranging from 200 nM to 100 μM), reference compounds Wy-14,643 (10 μM) and rosiglitazone (2 μM), or DMSO 0.1%. After further 24 h of incubation cells were lysed and luciferase activity in cell extracts was determined by a luminometer (VICTOR^3 V Multilabel Plate Reader, PerkinElmer, Monza, Italy) and normalized for β-galactosidase activity. Fold induction activity was calculated and plotted using GraphPad Prism5 software.
# [6] = ITC fit, OneSites model, Supplementary Fig. S3
# [7] = SPR, 20 °C, 1:1 model, for 2:1 model fits the first value (high affinity site), error in parentheses
compound,measurement,setting,value
"C[C@@H]1O[C@@H](O[C@H]2[C@H](O[C@H]3[C@H](O[C@H]4CC[C@@]5(C)[C@@H](CC[C@]6(C)[C@@H]5CC=C5[C@@H]7CC(C)(C)C[C@@H](O)[C@]7(C)CC[C@]56C)[C@@]4(C)CO)O[C@H](C(=O)O)[C@@H](O)[C@@H]3O)O[C@H](CO)[C@H](O)[C@@H]2O)[C@H](O)[C@H](O)[C@H]1O [SAP17, soyasaponin I]",Koff,[1],1.68 s⁻¹
same,Kd,"[1]; Kd, SPR, 1:1 model, for 2:1 model fits the first value (high affinity site)",32.5 µM
same,cytotoxicity,"[2]; HepG2, concentrations up to 100 μM",did not show cytotoxicity; also recorded: did not show any cytotoxic activity
same,IC50,"[2]; Homo sapiens, HepG2, 24 h",> 100 µM
"CC1(C)C[C@@H](O)[C@]2(C)CC[C@]3(C)C(=CC[C@@H]4[C@@]5(C)CC[C@H](O)[C@](C)(CO)[C@@H]5CC[C@]43C)[C@@H]2C1 [SAP24, soyasapogenol B]",affinity to the nuclear receptor,[1]; SPR,didn’t show affinity
CCCCC[C@H](O)/C=C/C=C\CCCCCCCC(=O)O [13-(S)-HODE],K (association constant),[3]; [6],106000 M⁻¹
same,ΔH,[3]; [6],-2.206 kcal/mol
same,ΔS,[3]; [6],15.5 cal/mol/deg
same,ΔH,"[3]; ITC, 22 °C",-2.21 kcal/mol
same,−TΔS,"[3]; ITC, 22 °C",-4.56 kcal/mol
same,Kd,"[3]; ITC, 22 °C, one-site model",9.4 µM
"CC1(C)CC[C@]2(C(=O)O)CC[C@]3(C)C(=CCC4[C@@]5(C)C[C@H](O)[C@H](O)[C@@](C)(CO)C5CC[C@]43C)C2C1 (stereo partly drawn) [SAP21, bayogenin]",affinity to the nuclear receptor,[1]; SPR,didn’t show affinity
CC(C)=CCC[C@](C)(O)[C@H]1CC[C@]2(C)[C@@H]1[C@H](O)C[C@@H]1[C@@]3(C)CC[C@H](O)C(C)(C)[C@@H]3[C@@H](O)C[C@]12C [protopanaxatriol],activity towards PPARγ,[4],antagonist activity
echinocystic acid [SAP18],Koff,"[1]; SPR, 2:1 molecular interaction model, second value in cell (second site)",0.715(0.002) s^−1
same,Koff,[1]; [7],0.0014 s⁻¹
same,Kon,[1]; [7],144.8(0.2) M^−1s^−1
same,IC50,"[2]; HepG2, MTT, 24 h",4.1 ± 0.4 µM
same,reduction of the effects of rosiglitazone,[5]; at 5 μM,40%
same,antagonist behavior towards PPARγ,[5]; in words,antagonist activity
"CC1(C)CC[C@]2(C(=O)O)CC[C@]3(C)C(=CC[C@@H]4[C@@]5(C)CC[C@H](O)[C@@](C)(CO)[C@@H]5CC[C@]43C)[C@@H]2C1 [SAP20, hederagenin]",affinity to the nuclear receptor,[1]; SPR,didn’t show affinity
same,Kd,"[1]; SPR, 1:1 model, for 2:1 model fits the first value (high affinity site), read-out: Kd",> 1000 µM
